Values quoted from earlier work, collected in patent publication US20220000966A1, “COMPOSITION AND METHOD FOR TREATING THE LUNGS” (priority 2018, published 2022).
Like-named read-outs stand apart in the source and are kept apart here. Blank lines part the entries; values can stand above or below the compound they belong to.

How the values were obtained:
[1] = test system: patients with reversible obstructive ventilatory disorders
[2] = biological target: human TRPM8 (hTRPM8) (Homo sapiens, UniProt Q7Z2W7)
[3] = test system: patients with steroid-dependent bronchial asthma
[4] = biological target: T1, TRPA1 (Homo sapiens, UniProt O75762)
[5] = test system: lymphocytes; settings: 1.5 μg/mL
[6] = test system: blood monocytes
[7] = test system: monocytes
[8] = test system: human subjects; settings: octanol on the neck of human subjects followed by 1,8-cineole
[9] = biological target: T1, TRPA1; remark: listed apart in the source
[10] = test system: primary human bronchial epithelial cells; settings: cigarette smoke extract, pretreatment
[11] = test system: human lung cancer A549
[12] = test system: airway inflammation in asthma; settings: in vivo
[13] = test system: leukemia K562 cells; settings: in vitro and ex vivo
[14] = test system: particulate air pollution-induced inflammation; settings: in vivo
[15] = orally 600 mg/day, COPD patients
[16] = test system: human lung epithelial cells (A-549), fibroblasts (HFL1), and lymphoma cells (U-937)
[17] = test system: cardiomyocyte
[18] = oral administration, healthy subjects
[19] = test system: patients; settings: inhaled
[20] = test system: human MonoMac6 cells; settings: cells pretreated
[21] = test system: Guinea pigs; settings: pretreatment
[22] = test system: mice; settings: injection
[23] = test system: rats; settings: 50 mg/kg orally each day, smoke 1 hr/day for 56 days
[24] = 200 mg orally 3 times per day for 12 weeks
[25] = patients with bronchial asthma, day 4, 1,8-cineole capsules 200 mg 3 times/day

T1 sequence (O75762 whole entry): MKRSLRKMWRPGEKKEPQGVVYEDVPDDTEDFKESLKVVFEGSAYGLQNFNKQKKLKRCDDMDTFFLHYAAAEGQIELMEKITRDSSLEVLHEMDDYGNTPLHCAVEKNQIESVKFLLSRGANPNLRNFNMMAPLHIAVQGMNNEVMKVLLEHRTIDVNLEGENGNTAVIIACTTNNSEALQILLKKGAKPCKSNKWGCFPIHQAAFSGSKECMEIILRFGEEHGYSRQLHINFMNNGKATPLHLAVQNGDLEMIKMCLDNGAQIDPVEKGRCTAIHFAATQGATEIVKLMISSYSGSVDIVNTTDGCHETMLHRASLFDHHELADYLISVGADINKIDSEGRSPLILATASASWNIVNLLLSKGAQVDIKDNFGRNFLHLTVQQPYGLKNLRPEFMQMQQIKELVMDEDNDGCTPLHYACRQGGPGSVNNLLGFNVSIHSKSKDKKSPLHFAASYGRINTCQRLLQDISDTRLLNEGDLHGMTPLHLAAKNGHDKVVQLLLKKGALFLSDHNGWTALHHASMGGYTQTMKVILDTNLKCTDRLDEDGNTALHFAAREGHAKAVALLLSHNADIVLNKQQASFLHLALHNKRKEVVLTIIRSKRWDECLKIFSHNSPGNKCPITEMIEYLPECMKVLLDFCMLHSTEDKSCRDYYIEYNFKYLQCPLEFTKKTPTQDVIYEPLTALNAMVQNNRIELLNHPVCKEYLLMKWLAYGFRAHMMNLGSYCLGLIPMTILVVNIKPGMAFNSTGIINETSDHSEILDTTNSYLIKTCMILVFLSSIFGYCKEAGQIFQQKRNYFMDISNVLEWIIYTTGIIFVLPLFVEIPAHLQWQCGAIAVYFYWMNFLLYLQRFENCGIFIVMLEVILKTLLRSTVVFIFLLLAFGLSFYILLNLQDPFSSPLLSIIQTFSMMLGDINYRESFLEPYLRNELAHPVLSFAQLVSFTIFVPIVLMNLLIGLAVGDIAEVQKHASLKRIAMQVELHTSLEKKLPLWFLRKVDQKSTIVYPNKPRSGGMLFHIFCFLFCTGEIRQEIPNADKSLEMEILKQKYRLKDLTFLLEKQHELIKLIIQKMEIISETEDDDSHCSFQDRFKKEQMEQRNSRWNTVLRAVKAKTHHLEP
Sequence of human TRPM8 (hTRPM8) (Q7Z2W7 whole entry): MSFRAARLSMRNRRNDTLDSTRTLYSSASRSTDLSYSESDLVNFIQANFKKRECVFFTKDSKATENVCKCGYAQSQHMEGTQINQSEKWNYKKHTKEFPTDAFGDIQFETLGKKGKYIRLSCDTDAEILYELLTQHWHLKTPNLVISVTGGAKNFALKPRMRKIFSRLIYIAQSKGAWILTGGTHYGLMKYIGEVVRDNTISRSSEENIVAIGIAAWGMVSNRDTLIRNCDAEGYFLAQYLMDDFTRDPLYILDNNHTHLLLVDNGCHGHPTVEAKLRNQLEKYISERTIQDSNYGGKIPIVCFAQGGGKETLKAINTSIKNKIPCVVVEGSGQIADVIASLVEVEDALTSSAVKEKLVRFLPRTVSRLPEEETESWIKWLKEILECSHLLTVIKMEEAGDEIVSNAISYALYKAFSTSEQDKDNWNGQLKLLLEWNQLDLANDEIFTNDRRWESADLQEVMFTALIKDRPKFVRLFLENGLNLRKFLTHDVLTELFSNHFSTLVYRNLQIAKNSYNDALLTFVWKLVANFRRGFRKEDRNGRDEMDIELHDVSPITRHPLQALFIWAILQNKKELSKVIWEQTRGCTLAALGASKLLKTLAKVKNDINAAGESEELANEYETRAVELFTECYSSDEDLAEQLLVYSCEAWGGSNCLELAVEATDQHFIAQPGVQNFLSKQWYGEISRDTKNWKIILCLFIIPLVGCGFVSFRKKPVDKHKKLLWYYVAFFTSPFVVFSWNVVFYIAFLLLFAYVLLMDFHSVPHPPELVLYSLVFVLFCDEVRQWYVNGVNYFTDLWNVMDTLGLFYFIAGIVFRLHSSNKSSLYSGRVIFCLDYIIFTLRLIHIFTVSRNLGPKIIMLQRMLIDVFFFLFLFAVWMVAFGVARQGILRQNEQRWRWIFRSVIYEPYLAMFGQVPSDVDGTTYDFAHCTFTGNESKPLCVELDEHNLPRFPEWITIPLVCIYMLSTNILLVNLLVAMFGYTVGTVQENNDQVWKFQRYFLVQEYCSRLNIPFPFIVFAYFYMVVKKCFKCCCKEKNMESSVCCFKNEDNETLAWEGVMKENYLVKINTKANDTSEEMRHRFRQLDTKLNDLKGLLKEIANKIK

TRPM8 activation [2]: activates | action on hTRPA1 [4]: antagonist
Compound: CC12CCC(CC1)C(C)(C)O2 [1,8-cineole]
change of airway resistance ([1]; treatment duration of eight weeks): −21% | change of airway resistance ([1]; treatment duration of one week): −23% | reduction in daily prednisolone dosage tolerated [3, 24]: 36% | reduction in daily prednisolone dosage, mean [3, 24]: 3.75 mg | patients who achieved a reduction of oral steroids ([3]; 1,8-cineole group): Twelve of 16 | inhibition of IL-1β production in lymphocytes [5]: 84% | change of LTB4 production from monocytes ex vivo ([6]; healthy volunteers, day 4): −57.9% | change of PGE2 production from monocytes ex vivo ([6]; healthy volunteers, day 4): −42.7% | change of LTB4 production from monocytes ex vivo [6, 25]: −40.3% | change of PGE2 production from monocytes ex vivo [6, 25]: −31.3% | inhibition of production of TNF-α, IL-1β, LTB4 and TXB2 [7]: dose-dependent and highly significant inhibition | irritation of octanol [8]: significantly reduced

Compound: C=C1CC/C=C(\C)CC[C@@H]2[C@@H]1CC2(C)C [BCP, β-caryophyllene]
action on TRPA1 [9]: agonist

Compound: CC(C)c1ccc(NC(=O)Cn2cnc3c2c(=O)n(C)c(=O)n3C)cc1 [HC-030031]
Ca^2+ influx [10]: decrease in Ca^2+ influx was similar

Compound: CCNC(=O)CC[C@H](N)C(=O)O [L-theanine]
migration and invasion of A549 cells [11]: significantly inhibited | growth of human lung cancer A549 cells ([11]; in vitro and ex vivo): significantly suppressed | inflammatory cells in bronchoalveolar lavage fluid (BALF) [12]: dramatically attenuated | production of IgE, MCP-1, IL-4, IL-5, IL-13, TNF-α and INF-γ in BALF [12]: significantly decreased | growth of leukemia K562 cells [13]: significantly suppressed

Compound: CC(=O)N[C@@H](CS)C(=O)O [N-acetyl cysteine]
Ca^2+ influx [10]: prevented | particulate air pollution-induced inflammation [14]: effectively prevented | sputum eosinophil cationic protein concentrations and adhesion of polymorphonuclear leukocytes [15]: reduced

Compound: COc1ccc2cc3[n+](cc2c1OC)CCc1cc2c(cc1-3)OCO2 [berberine]
inhibition of inflammatory agents-induced cytokine production [16]: dose-dependent and cell type-independent

Compound: COc1cc(O)cc(O)c1C(=O)/C=C/c1ccccc1 [cardamonin]
cardiomyocyte constriction [17]: nor did it impair

increase of plasma glutathione levels [18]: ineffective | FEV1 change from baseline [19]: −19% | induced breathlessness [19]: three | induced cough [19]: four | total pulmonary resistance change from baseline [19]: +61% | period for which epithelial lung fluid glutathione remained elevated (aerosol nebulizer): 2 h | glutathione epithelial lung fluid concentration (aerosol nebulizer, 4 mL of 150 mg/mL over 25 minutes): about 337 μM
Compound: N[C@@H](CCC(=O)N[C@@H](CS)C(=O)NCC(=O)O)C(=O)O [glutathione, γ-L-glutamyl-L-cysteinyl-glycine]
cigarette smoke-induced reduction in HDAC levels [20]: reversed | IL-8 release ([20]; cigarette smoke extract): significantly inhibited | glutathione concentration increase in epithelial lung fluid (intravenously administered 600 mg): no measurable glutathione concentration increases

Compound: CC1CCC(C(C)C)C(O)C1 (centres unmarked) [menthol, reference compound]
TRPM8 activation [2]: activation | TRPA1 activation [4]: activated

Compound: CC1=CC(=O)C(C(C)C)=CC1=O [thymoquinone]
TNF-α level [21]: significantly reduced | bronchoalveolar lavage fluid Leukotriene B4 (LTB4) levels [21]: did not significantly change | malondialdehyde level [21]: significantly reduced | neutrophil elastase (NE) level [21]: significantly reduced | chronic inflammatory changes [22]: reduction

Compound: epigallocatechin-3-gallate
TNF-α level [21]: significantly reduced | bronchoalveolar lavage fluid Leukotriene B4 (LTB4) levels [21]: significantly reduced | glutathione peroxidase activity [21]: increase | myeloperoxidase in lung tissue homogenate [21]: significantly reduced | neutrophil elastase (NE) level [21]: significantly reduced | superoxide dismutase activity [21]: not significantly affected | cigarette smoke-induced oxidative stress, neutrophilic inflammation, airway mucus production and collagen deposition [23]: ameliorated
